# Patent US12492188B2, “1H-benzo[D]imidazole derivatives as TLR9 inhibitors for the treatment of fibrosis” (BRISTOL-MYERS SQUIBB COMPANY, priority 2020, dated 2025)
# Where two headings read alike, the source gives them in different places.
# Tests used:
# Assay type in all cases: cell-based
# human TLR7 = molecular target: T1, human TLR7 (Homo sapiens, UniProt Q9NYK1); test: TLR7 inhibition reporter assay (HEK-Blue cells, secreted embryonic alkaline phosphatase reporter); settings: HEK-Blue cells overexpressing human TLR7, stimulated with gardiquimod 7.5 μM; read-out: TLR 7 IC50
# T1 construct: host or cells: HEK-Blue cells (HEK293-derived reporter line)
# T1 sequence (Q9NYK1 27-1049): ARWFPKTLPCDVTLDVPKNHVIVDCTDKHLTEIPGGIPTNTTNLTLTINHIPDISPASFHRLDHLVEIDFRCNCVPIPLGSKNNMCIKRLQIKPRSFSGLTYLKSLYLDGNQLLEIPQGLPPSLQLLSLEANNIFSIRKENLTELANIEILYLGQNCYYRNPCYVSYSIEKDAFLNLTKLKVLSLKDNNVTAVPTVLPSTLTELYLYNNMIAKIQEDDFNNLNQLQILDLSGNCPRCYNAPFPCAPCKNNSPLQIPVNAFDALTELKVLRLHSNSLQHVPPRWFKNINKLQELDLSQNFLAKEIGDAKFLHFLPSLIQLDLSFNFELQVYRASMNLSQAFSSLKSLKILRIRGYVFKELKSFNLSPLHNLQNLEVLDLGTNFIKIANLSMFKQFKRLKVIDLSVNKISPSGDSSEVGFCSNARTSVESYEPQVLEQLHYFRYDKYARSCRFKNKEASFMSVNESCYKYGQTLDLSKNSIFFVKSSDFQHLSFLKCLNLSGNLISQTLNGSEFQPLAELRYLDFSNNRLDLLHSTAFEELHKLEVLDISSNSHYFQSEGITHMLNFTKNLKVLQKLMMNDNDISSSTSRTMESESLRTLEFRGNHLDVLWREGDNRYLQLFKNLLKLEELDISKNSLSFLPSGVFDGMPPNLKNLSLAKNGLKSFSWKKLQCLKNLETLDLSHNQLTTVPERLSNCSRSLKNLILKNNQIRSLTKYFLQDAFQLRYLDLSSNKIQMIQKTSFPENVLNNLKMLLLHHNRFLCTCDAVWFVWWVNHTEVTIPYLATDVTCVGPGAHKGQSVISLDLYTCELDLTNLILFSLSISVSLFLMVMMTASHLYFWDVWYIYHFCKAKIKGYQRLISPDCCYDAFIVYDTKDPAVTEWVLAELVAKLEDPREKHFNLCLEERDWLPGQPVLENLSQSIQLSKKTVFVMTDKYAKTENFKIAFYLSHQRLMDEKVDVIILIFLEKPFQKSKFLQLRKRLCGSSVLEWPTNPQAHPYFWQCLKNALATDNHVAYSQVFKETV
# Method in brief: (§1)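 HEK-Blue cells overexpressing the respective receptor, with an NF-κB/AP-1-driven SEAP reporter, were pre-treated with compound (0.05 nM–50 μM) for 30 min at room temperature. Stimulation used gardiquimod 7.5 μM (TLR7), R848 15.9 μM (TLR8) or ODN2006 5 nM (TLR9); SEAP was read after 22 h at 37 °C as percent inhibition.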
# human TLR9 = molecular target: T2, human TLR9 (Homo sapiens, UniProt Q9NR96); test: TLR9 inhibition reporter assay (HEK-Blue cells, secreted embryonic alkaline phosphatase reporter); settings: HEK-Blue cells overexpressing human TLR9, stimulated with ODN2006 5 nM
# T2 construct: host or cells: HEK-Blue cells (HEK293-derived reporter line)
# T2 sequence (Q9NR96 26-1032): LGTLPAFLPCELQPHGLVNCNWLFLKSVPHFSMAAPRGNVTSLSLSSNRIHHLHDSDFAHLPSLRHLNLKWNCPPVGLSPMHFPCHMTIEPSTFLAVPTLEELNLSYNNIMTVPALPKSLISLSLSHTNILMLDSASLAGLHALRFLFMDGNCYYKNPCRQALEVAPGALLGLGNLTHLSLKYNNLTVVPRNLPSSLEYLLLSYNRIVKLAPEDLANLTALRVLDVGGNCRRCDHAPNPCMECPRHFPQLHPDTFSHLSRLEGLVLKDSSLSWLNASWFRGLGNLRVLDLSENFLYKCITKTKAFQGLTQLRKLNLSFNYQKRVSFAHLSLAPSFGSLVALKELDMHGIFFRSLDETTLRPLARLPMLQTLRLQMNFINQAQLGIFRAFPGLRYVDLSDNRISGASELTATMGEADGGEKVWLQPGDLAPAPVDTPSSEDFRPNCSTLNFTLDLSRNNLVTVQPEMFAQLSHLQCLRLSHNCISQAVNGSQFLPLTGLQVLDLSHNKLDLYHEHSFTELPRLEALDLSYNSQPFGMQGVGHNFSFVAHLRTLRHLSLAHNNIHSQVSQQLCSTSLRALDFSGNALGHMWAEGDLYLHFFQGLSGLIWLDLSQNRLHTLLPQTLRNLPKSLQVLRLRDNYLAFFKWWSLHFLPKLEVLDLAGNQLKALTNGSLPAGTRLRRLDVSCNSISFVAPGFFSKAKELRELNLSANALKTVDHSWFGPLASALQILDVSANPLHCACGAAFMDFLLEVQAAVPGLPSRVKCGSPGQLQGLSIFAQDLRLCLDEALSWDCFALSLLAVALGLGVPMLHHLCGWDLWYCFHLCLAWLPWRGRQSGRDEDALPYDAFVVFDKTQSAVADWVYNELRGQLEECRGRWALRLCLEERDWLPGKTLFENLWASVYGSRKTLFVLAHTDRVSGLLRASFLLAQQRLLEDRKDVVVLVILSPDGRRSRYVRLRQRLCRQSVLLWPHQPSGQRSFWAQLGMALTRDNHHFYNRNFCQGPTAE
# Method in brief: as §1
# human TLR8 = molecular target: T3, human TLR8 (Homo sapiens, UniProt Q9NR97); test: TLR8 inhibition reporter assay (HEK-Blue cells, secreted embryonic alkaline phosphatase reporter); settings: HEK-Blue cells overexpressing human TLR8, stimulated with R848 15.9 μM; read-out: TLR 8 IC50
# T3 construct: host or cells: HEK-Blue cells (HEK293-derived reporter line)
# T3 sequence (Q9NR97 27-1041): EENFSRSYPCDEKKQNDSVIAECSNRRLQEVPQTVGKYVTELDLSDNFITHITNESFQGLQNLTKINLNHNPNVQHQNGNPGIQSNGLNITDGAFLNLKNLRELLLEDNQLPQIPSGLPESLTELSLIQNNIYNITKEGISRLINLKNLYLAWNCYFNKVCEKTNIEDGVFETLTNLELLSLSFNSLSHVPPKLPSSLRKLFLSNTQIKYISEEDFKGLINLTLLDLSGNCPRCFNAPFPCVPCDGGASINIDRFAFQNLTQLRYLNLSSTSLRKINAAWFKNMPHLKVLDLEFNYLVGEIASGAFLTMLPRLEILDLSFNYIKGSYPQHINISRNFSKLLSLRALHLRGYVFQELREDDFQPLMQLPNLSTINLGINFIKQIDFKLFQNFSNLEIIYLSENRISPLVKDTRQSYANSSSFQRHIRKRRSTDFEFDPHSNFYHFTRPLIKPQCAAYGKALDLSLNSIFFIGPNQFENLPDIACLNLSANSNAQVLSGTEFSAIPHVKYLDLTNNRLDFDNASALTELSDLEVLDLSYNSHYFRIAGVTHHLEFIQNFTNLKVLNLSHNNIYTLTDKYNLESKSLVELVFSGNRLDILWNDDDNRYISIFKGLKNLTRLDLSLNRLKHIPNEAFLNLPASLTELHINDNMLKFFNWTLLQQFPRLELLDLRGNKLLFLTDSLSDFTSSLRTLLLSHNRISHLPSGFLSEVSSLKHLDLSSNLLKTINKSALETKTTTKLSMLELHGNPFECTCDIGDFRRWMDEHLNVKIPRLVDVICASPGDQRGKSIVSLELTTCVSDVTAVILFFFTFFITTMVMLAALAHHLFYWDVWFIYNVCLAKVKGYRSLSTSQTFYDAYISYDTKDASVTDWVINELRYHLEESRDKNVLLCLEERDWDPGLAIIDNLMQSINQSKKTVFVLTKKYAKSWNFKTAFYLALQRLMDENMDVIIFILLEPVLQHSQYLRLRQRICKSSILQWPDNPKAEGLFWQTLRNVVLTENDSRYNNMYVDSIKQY
# Method in brief: as §1
# [1] = 22 hour incubation, reporter readout
SMILES,IC50 (human TLR7) [nM],IC50 (human TLR9; [1]) [nM],IC50 (human TLR9; read-out: TLR 9 IC50) [nM],IC50 (human TLR8) [nM]
"COc1ccc(-c2nc3c(C)cc(C4CCN(C5CCN(C6CC6)CC5)CC4)cc3n2C)cc1F [Example 55, 6-(1′-cyclopropyl-[1,4′-bipiperidin]-4-yl)-2-(3-fluoro-4-methoxyphenyl)-1,4-dimethyl-1H-benzo[d]imidazole]",9300,140,140,> 50000
"COc1ccc(-c2nc3c(C)cc(C4CCN(C5CCN(CC(C)C)CC5)CC4)cc3[nH]2)cc1F [Example 56, 2-(3-fluoro-4-methoxyphenyl)-6-(1′-isobutyl-[1,4′-bipiperidin]-4-yl)-4-methyl-1H-benzo[d]imidazole]",3200,50,50,> 50000
"COc1ccc(-c2nc3c(C)cc(C4CCN(C5CCN(C6CC6)CC5)CC4)cc3[nH]2)cc1F [Example 57, 6-(1′-cyclopropyl-[1,4′-bipiperidin]-4-yl)-2-(3-fluoro-4-methoxyphenyl)-4-methyl-1H-benzo[d]imidazole]",16000,170,171,> 50000
"Cc1cc(C2CCN(C3CCN(CC(C)C)CC3)CC2)cc2[nH]c(-c3ccc(S(C)(=O)=O)cc3)nc12 [Example 58, 6-(1′-isobutyl-[1,4′-bipiperidin]-4-yl)-4-methyl-2-(4-(methylsulfonyl)phenyl)-1H-benzo[d]imidazole tris(2,2,2-trifluoroacetate)]",3100,47,47,> 50000
"Cc1cc(C2CCN(C3CCN(CC(C)C)CC3)CC2)cc2[nH]c(-c3ccnc4ccccc34)nc12 [Example 59, 4-(6-(1′-isobutyl-[1,4′-bipiperidin]-4-yl)-4-methyl-1H-benzo[d]imidazol-2-yl)quinoline]",3800,100,100,> 50000
"Cc1cc(-c2nc3c(C)cc(C4CCN(C5CCN(CC(C)C)CC5)CC4)cc3[nH]2)cc(C)n1 [Example 60, 2-(2,6-dimethylpyridin-4-yl)-6-(1′-isobutyl-[1,4′-bipiperidin]-4-yl)-4-methyl-1H-benzo[d]imidazole]",1500,45,45,> 50000
"Cc1cc(C2CCN(C3CCN(CC(C)C)CC3)CC2)cc2[nH]c(-c3ccc4c(c3)OCCO4)nc12 [Example 62, 2-(2,3-dihydrobenzo[b][1,4]dioxin-6-yl)-6-(1′-isobutyl-[1,4′-bipiperidin]-4-yl)-4-methyl-1H-benzo[d]imidazole]",740,350,345,> 50000
"Cc1cc(-c2ccc(N3CCN(C(C)C)CC3)cc2)cc2c1nc(-c1ccc(S(C)(=O)=O)cc1)n2C [Example 86, 6-(4-(4-isopropylpiperazin-1-yl)phenyl)-1,4-dimethyl-2-(4-(methylsulfonyl)phenyl)-1H-benzo[d]imidazole]",5200,300,,> 50000
"CC(C)N1CCC(N2CCC(c3ccc4nc(-c5ccc(S(C)(=O)=O)cc5)[nH]c4c3F)CC2)CC1 [Example 87, 7-fluoro-6-(1′-isopropyl-[1,4′-bipiperidin]-4-yl)-2-(4-(methylsulfonyl)phenyl)-1H-benzo[d]imidazole]",> 50000,950,,> 50000
"CC(C)N1CCC(N2CCC(c3ccc4c(nc(-c5ccc(S(C)(=O)=O)cc5)n4C)c3F)CC2)CC1 [Example 88, 4-fluoro-5-(1′-isopropyl-[1,4′-bipiperidin]-4-yl)-1-methyl-2-(4-(methylsulfonyl)phenyl)-1H-benzo[d]imidazole]",> 50000,360,363,> 50000
"CC(C)N1CCC(N2CCC(c3cc(F)c4c(c3)nc(-c3ccc(S(C)(=O)=O)cc3)n4C)CC2)CC1 [Example 91, 7-fluoro-5-(1′-isopropyl-[1,4′-bipiperidin]-4-yl)-1-methyl-2-(4-(methylsulfonyl)phenyl)-1H-benzo[d]imidazole]",19400,100,104,> 50000
"CC(C)N1CCC(N2CCC(c3cc4c(cc3F)nc(-c3ccc(S(C)(=O)=O)cc3)n4C)CC2)CC1 [Example 96, 5-fluoro-6-(1′-isopropyl-[1,4′-bipiperidin]-4-yl)-1-methyl-2-(4-(methylsulfonyl)phenyl)-1H-benzo[d]imidazole]",7300,73,,> 50000
"CC(C)N1CCC(N2CCC(c3cc4nc(-c5ccc(S(C)(=O)=O)cc5)n(C)c4cc3F)CC2)CC1 [Example 99, 6-fluoro-5-(1′-isopropyl-[1,4′-bipiperidin]-4-yl)-1-methyl-2-(4-(methylsulfonyl)phenyl)-1H-benzo[d]imidazole]",38300,360,358,> 50000
